Results: ChEMBL document CHEMBL1201862, “PubChem BioAssay data set” (2004)
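Cultured in 96-well plates, cells were exposed to test compound for 48 hours across five concentrations. GI50: concentration for 50% inhibition of growth.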 Active and inactive are the calls of the source. No stated cut-off is given here; in the data, active = GI50 up to about 1.1 µM and inactive = higher.

Experiments:
Experiment in all cases: growth of human tumour cells (NCI), 48 h
ACHN = test system: ACHN
UACC-62 = test system: UACC-62
TK-10 = test system: TK-10
HT-29 = test system: HT-29
K562 = test system: K562
SF-295 = test system: SF-295
KM12 = test system: KM12
SK-OV-3 = test system: SK-OV-3
NCI-H23 = test system: NCI-H23
SK-MEL-28 = test system: SK-MEL-28
OVCAR-8 = test system: OVCAR-8
NCI-H226 = test system: NCI-H226
HOP-92 = test system: HOP-92
SW-620 = test system: SW-620
SF-539 = test system: SF-539
Malme-3M = test system: Malme-3M
RXF 393 = test system: RXF 393
U-251 = test system: U-251

Measured: GI50

O=C(CCN1CCN(c2cccc(Cl)c2)CC1)N1CCc2c([nH]c3ccccc23)C1c1cccnc1 (centres undefined)
inactive: ACHN 4.78 µM | UACC-62 > 10 µM | TK-10 4.01 µM | HT-29 3.56 µM | K562 2.78 µM | SF-295 4.72 µM | KM12 3.05 µM | SK-OV-3 6.59 µM | NCI-H23 7.89 µM | SK-MEL-28 11.9 µM | OVCAR-8 6.55 µM | NCI-H226 18.6 µM | HOP-92 1.9 µM | SW-620 > 10 µM | SF-539 13.7 µM | Malme-3M 7.71 µM | RXF 393 7.4 µM | U-251 7.08 µM

Nc1c(Cl)ncnc1NCCCNc1ncnc(Cl)c1N
inactive: ACHN > 100 µM | UACC-62 > 100 µM | TK-10 > 100 µM | HT-29 > 100 µM | K562 > 100 µM | SF-295 > 100 µM | KM12 > 100 µM | SK-OV-3 > 100 µM | NCI-H23 53.8 µM | SK-MEL-28 > 100 µM | OVCAR-8 > 100 µM | NCI-H226 > 100 µM | HOP-92 > 100 µM | SW-620 > 100 µM | SF-539 > 100 µM | RXF 393 > 100 µM | U-251 > 100 µM

COc1cccc(NC(=O)/C(CS(=O)(=O)CCC(C(C)=O)C(C)=O)=N/NC(C)(C)C)c1
inactive: ACHN > 100 µM | UACC-62 > 100 µM | TK-10 > 100 µM | HT-29 > 100 µM | K562 > 100 µM | KM12 > 100 µM | SK-OV-3 > 100 µM | NCI-H23 > 100 µM | SK-MEL-28 > 100 µM | OVCAR-8 > 100 µM | NCI-H226 > 100 µM | HOP-92 > 100 µM | SW-620 > 100 µM | SF-539 > 100 µM | Malme-3M > 100 µM | RXF 393 > 100 µM | U-251 > 100 µM

NC(=S)Nc1nnc(-c2ccc(-c3nnc(NC(N)=S)o3)cc2)o1
inactive: ACHN > 100 µM | UACC-62 > 100 µM | TK-10 > 100 µM | HT-29 > 100 µM | K562 > 100 µM | SF-295 > 100 µM | KM12 > 100 µM | SK-OV-3 > 100 µM | NCI-H23 > 100 µM | SK-MEL-28 > 100 µM | OVCAR-8 > 100 µM | NCI-H226 > 100 µM | HOP-92 > 100 µM | SW-620 > 100 µM | SF-539 > 100 µM | Malme-3M > 100 µM | RXF 393 > 100 µM | U-251 > 100 µM

OC(CCNC12CC3CC(CC(C3)C1)C2)c1ccccc1 (centres undefined)
inactive: ACHN > 100 µM | UACC-62 > 100 µM | TK-10 > 100 µM | HT-29 35.3 µM | SF-295 > 100 µM | KM12 88.9 µM | SK-OV-3 > 100 µM | NCI-H23 > 100 µM | SK-MEL-28 > 100 µM | OVCAR-8 > 100 µM | NCI-H226 > 100 µM | HOP-92 78.3 µM | SW-620 > 100 µM | SF-539 > 100 µM | Malme-3M > 100 µM | RXF 393 > 100 µM | U-251 > 100 µM

CC(=O)Nc1ccc(-c2nnc(SCC(=O)Nc3cccc([N+](=O)[O-])c3)o2)cc1
inactive: ACHN 15.4 µM | UACC-62 11.5 µM | TK-10 23.6 µM | HT-29 16.1 µM | K562 10.3 µM | SF-295 16.8 µM | KM12 17.3 µM | SK-OV-3 11.1 µM | NCI-H23 5.13 µM | SK-MEL-28 16.5 µM | OVCAR-8 16.2 µM | NCI-H226 10.8 µM | HOP-92 17.1 µM | SW-620 13.4 µM | SF-539 15.8 µM | Malme-3M 11.6 µM | RXF 393 12.2 µM | U-251 14.6 µM

CCCCCCCC(=O)OC[C@H](C[As](=O)(O)O)OC(=O)CCCCCCC
inactive: ACHN 10.7 µM | UACC-62 9.29 µM | HT-29 12.2 µM | K562 12.7 µM | SF-295 14.4 µM | SK-OV-3 15 µM | NCI-H23 14.3 µM | SK-MEL-28 13.3 µM | OVCAR-8 13.4 µM | NCI-H226 5.9 µM | HOP-92 14.4 µM | SW-620 7.26 µM | SF-539 5.13 µM | Malme-3M 12.7 µM | RXF 393 3.92 µM | U-251 4.95 µM

c1ccc2c(c1)[nH]c1c2nc2ncccn21
inactive: ACHN > 100 µM | UACC-62 > 100 µM | TK-10 > 100 µM | HT-29 > 100 µM | K562 > 100 µM | SF-295 > 100 µM | KM12 > 100 µM | SK-OV-3 > 100 µM | NCI-H23 > 100 µM | SK-MEL-28 > 100 µM | OVCAR-8 > 100 µM | NCI-H226 > 100 µM | HOP-92 > 100 µM | SW-620 > 100 µM | SF-539 > 100 µM | Malme-3M > 100 µM | RXF 393 > 100 µM | U-251 > 100 µM

COc1cc2c(cc1OC)C(N(C)C)C(c1ccccc1)=C2Cl (centres undefined)
inactive: TK-10 37.5 µM | HT-29 19.9 µM | K562 27.9 µM | SF-295 22.8 µM | KM12 23.2 µM | SK-OV-3 22 µM | NCI-H23 16.9 µM | SK-MEL-28 18.7 µM | OVCAR-8 18.9 µM | NCI-H226 21.9 µM | HOP-92 17.9 µM | SW-620 16.2 µM | SF-539 20.5 µM | RXF 393 15.5 µM | U-251 16.6 µM

COC(=O)CCC1(NS(=O)(=O)c2ccc(C)cc2)CCC(C(C)(C)C)CC1 (centres undefined)
inactive: ACHN > 10 µM | UACC-62 11.9 µM | TK-10 18 µM | HT-29 13.8 µM | K562 4.91 µM | SF-295 11.8 µM | KM12 13.1 µM | SK-OV-3 40.6 µM | NCI-H23 9.71 µM | SK-MEL-28 11.6 µM | OVCAR-8 14.5 µM | HOP-92 7.06 µM | SW-620 16.7 µM | SF-539 13.3 µM | Malme-3M 19.3 µM | RXF 393 > 10 µM | U-251 14.3 µM

CC(C)C1CC(O)O[C@@H]([C@@H](C)[C@H]2CC(=O)[C@@H]3[C@@H]4[C@@H](O)[C@H](O)[C@H]5[C@@H](O)[C@H](O)CC[C@]5(C)[C@H]4CC[C@]23C)C1 (some centres undefined)
inactive: ACHN 24.4 µM | UACC-62 79.4 µM | TK-10 38.3 µM | HT-29 > 100 µM | K562 > 100 µM | SF-295 47.8 µM | KM12 28.6 µM | SK-OV-3 34.5 µM | NCI-H23 36 µM | SK-MEL-28 > 100 µM | OVCAR-8 54.1 µM | NCI-H226 > 100 µM | HOP-92 22.2 µM | SW-620 > 100 µM | SF-539 > 100 µM | Malme-3M 77.4 µM | RXF 393 13.3 µM | U-251 63 µM
